Experiments:
Assay type in all cases: in vivo
Design in all cases: key: 5: completely killed; 4: seriously injured; 3: considerably injured; 2: somewhat injured; 1: slightly injured; 0: not injured (normally grown)
paddy rice = assay: Experiment 7 flooded soil treatment: injury to paddy rice; details: evaluated 4 weeks after treatment
From the text: (§1) Paddy soil (clay loam) was put into a pot so as to have a surface area of 1/15500 ares. Uniformly mixed seeds of several kinds of weeds, viz., nobie (barnyardgrass, Echinochloa spp.), broad-leaved weeds, hotarui (bulrush, Scirpus juncoides) and tamagayatsuri (small-flowered umbrellaplant, Cyperus difformis), were sown in the surface layer of the soil in each pot, and then paddy rice seedlings at the two- or three-leaved stage were transplanted into each pot to a depth of 2 cm, and water was fed into each pot so as to provide a 3 cm deep water layer on the soil surface. After 3 days, in other words at the initial stage of germination of nobie (barnyardgrass, Echinochloa spp.), a predetermined amount of a selected compound obtained in a manner analogous to Example 14 in the form of diluted aqueous solution was dropped into the water layer in each pot. After that, the pots were kept in a glass chamber to allow the paddy rice and the weeds to grow, and after the lapse of 4 weeks from the treatment with the selected compounds, the herbicidal effects and the degree of injury to the paddy rice were evaluated. The evaluation of the herbicidal effects was similarly conducted as that of Experiment 1.

[1] = system: nobie (barnyardgrass, Echinochloa spp.); assay: Experiment 7 flooded soil treatment: nobie; details: evaluated 4 weeks after treatment
From the text: as §1

broad-leaved weeds = assay: Experiment 7 flooded soil treatment: broad-leaved weeds; details: evaluated 4 weeks after treatment
From the text: as §1

[2] = system: hotarui (bulrush, Scirpus juncoides); assay: Experiment 7 flooded soil treatment: hotarui; details: evaluated 4 weeks after treatment
From the text: as §1

[3] = system: tamagayatsuri (small-flowered umbrellaplant, Cyperus difformis); assay: Experiment 7 flooded soil treatment: tamagayatsuri; details: evaluated 4 weeks after treatment
From the text: as §1

rice = assay: Experiment 8 foliage treatment: rice; details: foliage spray of wettable powder suspension, evaluated 4 weeks after treatment
Method in brief: (§2)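 Compound applied as a suspended wettable powder, sprayed onto plants at the two- or three-leaved stage, grown in cultivated soil in pots. Plants were kept in a glass chamber and herbicidal effect was scored 4 weeks after treatment, using the scoring of Experiment 1.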

[4] = system: cockspur (Panicum crus-galli); assay: Experiment 8 foliage treatment: cockspur; details: foliage spray of wettable powder suspension, evaluated 4 weeks after treatment
Method in brief: as §2

garden radish = assay: Experiment 8 foliage treatment: garden radish; details: foliage spray of wettable powder suspension, evaluated 4 weeks after treatment
Method in brief: as §2

[5] = system: aobiyu (slender amaranth, Amaranthus viridis); assay: Experiment 8 foliage treatment: aobiyu; details: foliage spray of wettable powder suspension, evaluated 4 weeks after treatment
Method in brief: as §2

[6] = system: mehishiba (henry crabgrass, Digitaria cliaris); assay: Experiment 8 foliage treatment: mehishiba; details: foliage spray of wettable powder suspension, evaluated 4 weeks after treatment
Method in brief: as §2

[7] = system: ichibi (velvetleaf, Abutilon theophrasti); assay: Experiment 9 foliage treatment: ichibi; details: foliage spray of wettable powder suspension, evaluated 4 weeks after treatment
Procedure: (§3) Upon seedling stage (two- or three-leaved stage) of ichibi (velvetleaf, Abutilon theophrasti), onamomi (heartleaf cocklebur, Xanthium strumarium) (4L stage), noasagao (blue morningglory, Ipomoea indica) and ooinutade (pale smartweed, Persicaria lapathifolia) which were grown on a cultivated soil put in pots of 1/8850 ares, a selected compound obtained in a manner analogous to Example 14, in suspended wettable powder, was sprayed to each plant. After that, the pots were kept in a glass chamber to allow each plant to grow, and after the lapse of 4 weeks from the treatment with the selected compounds the herbicidal effects were evaluated. The evaluation of the herbicidal effects was similarly conducted as that of Experiment 1.

[8] = system: onamomi (heartleaf cocklebur, Xanthium strumarium); assay: Experiment 9 foliage treatment: onamomi; details: foliage spray of wettable powder suspension, evaluated 4 weeks after treatment
Procedure: as §3

[9] = system: noasagao (blue morningglory, Ipomoea indica); assay: Experiment 9 foliage treatment: noasagao; details: foliage spray of wettable powder suspension, evaluated 4 weeks after treatment
Procedure: as §3

[10] = system: ooinutade (pale smartweed, Persicaria lapathifolia); assay: Experiment 9 foliage treatment: ooinutade; details: foliage spray of wettable powder suspension, evaluated 4 weeks after treatment
Procedure: as §3

Row | Compound | Injury of Paddy (paddy rice; 6.25 g/10a) | Injury of Paddy (paddy rice; 12.5 g/10a) | Herbicidal Effect nobie ([1]; 6.25 g/10a) | Herbicidal Effect nobie ([1]; 12.5 g/10a) | Herbicidal Effect broad-leaved weed (broad-leaved weeds; 6.25 g/10a) | Herbicidal Effect broad-leaved weed (broad-leaved weeds; 12.5 g/10a) | Herbicidal Effect hotarui ([2]; 6.25 g/10a) | Herbicidal Effect hotarui ([2]; 12.5 g/10a) | Herbicidal Effect tamagayatsuri ([3]; 6.25 g/10a) | Herbicidal Effect tamagayatsuri ([3]; 12.5 g/10a) | Herbicidal Effect rice (rice; 40 g/10a) | Herbicidal Effect rice (rice; 80 g/10a) | Herbicidal Effect cockspur ([4]; 40 g/10a) | Herbicidal Effect cockspur ([4]; 80 g/10a) | Herbicidal Effect garden radish (garden radish; 40 g/10a) | Herbicidal Effect garden radish (garden radish; 80 g/10a) | Herbicidal Effect aobiyu ([5]; 40 g/10a) | Herbicidal Effect aobiyu ([5]; 80 g/10a) | Herbicidal Effect mehishiba ([6]; 40 g/10a) | Herbicidal Effect mehishiba ([6]; 80 g/10a) | also measured
1 | C#CC(C)Oc1cc(N(C(=O)C2=C(C(=O)OC)CCCC2)C(=O)c2ccsc2)c(F)cc1Cl (stereo not shown) [Compound No. 100] | 0.5 | 0.5 | 5 | 5 | 5 | 5 | 5 | 5 | 5 | 5 | 1 | 1 | 1 | 1 | 5 | 5 | 5 | 5 | 1 | 1 | Herbicidal Effet ichibi ([7]; 4 g/10a): 5; Herbicidal Effet ichibi ([7]; 8 g/10a): 5; Herbicidal Effet onamomi ([8]; 4 g/10a): 5; Herbicidal Effet onamomi ([8]; 8 g/10a): 5; Herbicidal Effet noasagao ([9]; 4 g/10a): 5; Herbicidal Effet noasagao ([9]; 8 g/10a): 5; Herbicidal Effet ooinutade ([10]; 4 g/10a): 5; Herbicidal Effet ooinutade ([10]; 8 g/10a): 5
2 | C#CC(C)Oc1cc(N(C(=O)C2=C(C(=O)OC)CCCC2)C(=O)c2cccs2)c(F)cc1Cl (racemic) [compound 91, N-[4-chloro-2-fluoro-5-(1-methylproparzyloxy)phenyl]-N-(2-thiophenecarboxy)-3,4,5,6-tetrahydrophthalamic acid methyl ester] | 0 | 0.5 | 5 | 5 | 5 | 5 | 4 | 5 | 5 | 5 | 1 | 1 | 1 | 1 | 5 | 5 | 5 | 5 | 1 | 1 | Herbicidal Effet ichibi ([7]; 4 g/10a): 5; Herbicidal Effet ichibi ([7]; 8 g/10a): 5; Herbicidal Effet onamomi ([8]; 4 g/10a): 4; Herbicidal Effet onamomi ([8]; 8 g/10a): 5; Herbicidal Effet noasagao ([9]; 4 g/10a): 4; Herbicidal Effet noasagao ([9]; 8 g/10a): 5; Herbicidal Effet ooinutade ([10]; 4 g/10a): 5; Herbicidal Effet ooinutade ([10]; 8 g/10a): 5
3 | C#CC(C)Oc1cc(N(C(=O)C2=C(C(=O)OC)CCCC2)C(=O)c2ccc(Cl)s2)c(F)cc1Cl (stereo not shown) [compound 97] | 0 | 0 | 5 | 5 | 5 | 5 | 4 | 4 | 4 | 4 | 1 | 1 | 1 | 1 | 5 | 5 | 4 | 5 | 1 | 1 | Herbicidal Effet ichibi ([7]; 4 g/10a): 5; Herbicidal Effet ichibi ([7]; 8 g/10a): 5; Herbicidal Effet onamomi ([8]; 4 g/10a): 4; Herbicidal Effet onamomi ([8]; 8 g/10a): 4; Herbicidal Effet noasagao ([9]; 4 g/10a): 4; Herbicidal Effet noasagao ([9]; 8 g/10a): 4; Herbicidal Effet ooinutade ([10]; 4 g/10a): 4; Herbicidal Effet ooinutade ([10]; 8 g/10a): 5
4 | C#CC(C)Oc1cc(N(C(=O)C2=C(C(=O)OCCCC)CCCC2)C(=O)c2ccsc2)c(F)cc1Cl (stereo not shown) [compound 102] | 0.5 | 0.5 | 5 | 5 | 5 | 5 | 4 | 4 | 5 | 5 | 1 | 1 | 1 | 1 | 5 | 5 | 5 | 5 | 1 | 1 | Herbicidal Effet ichibi ([7]; 4 g/10a): 5; Herbicidal Effet ichibi ([7]; 8 g/10a): 5; Herbicidal Effet onamomi ([8]; 4 g/10a): 5; Herbicidal Effet onamomi ([8]; 8 g/10a): 5; Herbicidal Effet noasagao ([9]; 4 g/10a): 4; Herbicidal Effet noasagao ([9]; 8 g/10a): 5; Herbicidal Effet ooinutade ([10]; 4 g/10a): 4; Herbicidal Effet ooinutade ([10]; 8 g/10a): 5

Reference: patent US6337417B1, “N-phenyltetrahydrophthalamic acid derivatives, methods of producing same, and herbicides containing same as effective components” (Central Glass Co., Ltd., priority 1994, dated 2002)
